“Also recorded” adds a separate entry of the source.
What was measured:
A. palmeri female plants [1] = assay: Exp 289: seed set of female plants pollinated 1.5 hours to 10 days after Clethodim; format: in vivo, Amaranthus palmeri; settings: Select Super 3.5 ml/l
Description: The goal of this experiment was to examine the effects of Clethodim (Select Super™) on seed set in A. palmeri female plants. The results of Example 1 provided an initial indication on a reduction in seed set one week after an application of Clethodim. The following experiment tested the effect of Clethodim on seed set when pollination occurs from 1.5 hours to 10 days after treatment with Clethodim.
The experiment was conducted during June-July 2021 at the tests farm of the Tests farm of the Faculty of Agriculture, Rehovot, Israel, Israel. A. palmeri plants were sown in germinating trays. Three weeks after the seedlings had emerged, they were transplanted to 4 L pots with a potting soil mixture. The female plants were separated from the male plants and were grown outside in a location isolated from air-borne pollen. Upon maturation, 6 female plants were selected and divided into 2 groups of 3 plants.
Spraying of the entire plants with either tap water or Select Super™ (3.5 ml/1) using a hand-held 1.5 L sprayer, with enough distance between the groups to prevent contamination.
To test the effect of Clethodim on seed set, the inflorescence of the plants were artificially pollinated. On each time interval, a paper tube with 10 mg of fresh non-irradiated pollen was carefully placed on an inflorescence, leaving it for 20 minutes before removing. […]

[2] = test system: Amaranthus tuberculatus female plants; assay: Exp 401: clethodim on broadleaf panel, Amaranthus tuberculatus seed set; format: in vivo; settings: Select Super 7 ml/L
Description: (§1) The goal of this experiment was to examine if ACCase inhibitors can function as a sterilant on other broadleaf families.
(§2) The experiment was conducted during April-June 2022 at the test farm of the Faculty of Agriculture in Rehovot, Israel. The different broad leaf species (Table 5) were sown in germination trays. 3-4 weeks after the seedling had emerged, they were transplanted in 4 L pots with potting soil mixture. Amaranthus tuberculatus female plants were separated from male plants and grown outside in a location isolated from air borne pollen. Upon maturation, 10 plants from each species, except for A. tuberculatus females, were selected and divided into 2 groups (control and treatment). In A. tuberculatus, 8 female plants were used for the testing.
(§3) All the treated plants were sprayed with clethodim (Select Super™, Arysta Lifescience) in 7 ml/L rate while the control group was treated with tap water.
(§4) Treatment procedure was conducted as follows: spraying of the entire plants with the different treatments using electric back sprayer for a full cover, with enough distance between the groups to prevent contamination.
To test the effect of treatment on the seed set, artificial pollinations were conducted 7 days following the clethodim treatment. One spike from each plant was artificially pollinated by placing a paper tube with 10 mg of fresh non-irradiated pollen on the spike and leaving it for 20 minutes before removing. A total of 4 spikes from 4 female plants were pollinated.
(§5) Four, 7 14 and 21 days after treatment, the plants were visually examined carefully to identify possible sterilant effects such as reduction in pollen production, growth delay, damaged flowers, loss of flowers, loss of pods and phytotoxicity. These effects were measured or evaluated and recorded. The average values of each parameter were calculated both for the treated and for the control groups and a statistical analysis was conducted.

Abutilon theophrasti = assay: Exp 401: clethodim on Abutilon theophrasti; format: in vivo; settings: Select Super 7 ml/L
Description: as §1, §2, §3, §4, §5

A. palmeri female plants [3] = assay: Exp 313: dose response of Clethodim (Select Super) on seed set; format: in vivo, Amaranthus palmeri; settings: for reduction in number of seeds produced in comparison to the control, on average: all time points averaged
Description: The goal of this experiment was to examine dose response of Clethodim (Select Super™) treatment and validate the results of Example 3.
The experiment was conducted during September 2021 at the tests farm of the Faculty of Agriculture in Rehovot, Israel. A. palmeri plants were sown in germinating trays. 3 weeks after the seedlings had emerged, they were transplanted to 4 L pots with a potting soil mixture. The female plants were separated from the male plants and were grown outside in a location isolated from air-borne pollen. Upon maturation, 9 female plants were selected and divided into 3 groups of 3 plants.
The experiment tested 2 rates of Select Super™ (Clethodim 120 gr/L-Arysta): (I) Low rate (3.5 ml/1), (II) High rate (7 ml/1). Another group of plants was treated with tap water (Control), [3.5 ml/L treatment=0.42 gr/L in active ingredient, 7 ml/L treatment=0.84 gr/L].
Treatment procedure was conducted as follows: spraying of the entire plants with the different treatments using a hand-held 1.5 L sprayer, with enough distance between the groups to prevent contamination.
To test the effect of Clethodim on seed set, artificial pollinations were conducted in several time intervals following clethodim treatment. On each time interval, 2 inflorescences on each plant were artificially pollinated by placing a paper tube with 10 mg of fresh non-irradiated pollen on the inflorescence and leaving it for 20 minutes before removing. On each time interval a total of 6 inflorescences from 3 female plants were pollinated. The intervals were as follows: 1.5-hour, 1 day, 2 days, 4 days, 7 days, 10 days and 22 days after treatment.

A. palmeri male plants [4] = assay: Exp 275: pollen weight of male plants after male sterilant agents; format: in vivo, Amaranthus palmeri
Description: The experiment was conducted during May-June 2021 in a net house in Rehovot, Israel. A. palmeri plants were sown in the net house soil and were grown for over a month before the experiment started. A. palmeri plants were divided into 6 groups of 10 plants, 60 male plants in total.
The plants were mature and produced pollen when the experiment started. The pollen had been collected daily with a vacuum cleaner. The vacuum cleaner had been mounted with a replaceable filter located ahead of the dust container, thus catching the pollen before it enters the container and improving its collection. Pollen was collected for 5 days before the treatment and was continued for 2 weeks afterwards.
The experiment tested 5 male sterilant agents: (I) Silicon oil 2 cST; (II) 2% Paraffin oil (Life—Superpharm) in Silicon oil 2 c/st; (III) 10% Paraffin oil (Life—Superpharm) in Silicon oil 2 cST; (IV) Clethodim (Select Super™), same as in Example 1; (V) Pyrithiobac, at 1/10 the concentration used in experiment II. Another group of plants was not treated at all (Blank).
The treatments were applied using a hand-held sprayer. The solutions were sprayed on top of the plants.

A. palmeri females [5] = assay: Exp 254: seed set of females pollinated one week after treatment; format: in vivo, Amaranthus palmeri
Description: (§6) The experiment was conducted during April-May 2021 in a net house in Rehovot, Israel. A. palmeri plants were sown in germinating trays. Three weeks after the seedlings had emerged, the male plants were transplanted in the net house. A. palmeri plants were divided into 10 groups of 10 plants, 100 male plants in total. In addition, 30 females, 3 females per treatment, were transplanted in 4 L pots with a potting soil mixture and were grown in a different net house, isolated from male pollen.
(§7) The treatments were applied using a hand-held sprayer, the females were sprayed first and then the males. ˜650 ml solution was used per treatment for both males and females, except the Paraffin:Silicon oil treatment in which 500 ml was used. The solutions were sprayed on top of the plants except the Diuron that was sprayed directly to the soil and stem, except for one female that was sprayed on top. To activate the Diuron, each plant was watered with 1 L of water.
The experiment aimed to test not just the male sterility properties of the agents but also to examine the effect on the seed set. To do so, one week after treatment, the main inflorescence of each female (except the blank) was pollinated with fresh pollen mixed with talc in 2:1 ratio using a puffer. 70 mg of pollen was applied on each female. Two weeks after pollination the inflorescences were harvested, dried, thrashed and the seeds were counted.

[6] = test system: Amaranthus tuberculatus male plants; assay: Exp 401: Amaranthus tuberculatus pollen production; format: in vivo; settings: Select Super 7 ml/L
Description: as §1, §2
(§8) All the treated plants were sprayed with clethodim (Select Super™, Arysta Lifescience) in 7 ml/L rate while the control group was treated with tap water. […]
as §5

Solanum nigrum = assay: Exp 401: clethodim on Solanum nigrum; format: in vivo; settings: Select Super 7 ml/L; 15 DAA; p-value 0.0048
Description: as §1, §2, §8, §5

A. palmeri male plants [7] = assay: Exp 254: pollen production of male plants after spraying male sterilant agents; format: in vivo, Amaranthus palmeri
Description: as §6
Once the male plants had all started to flower, the pollen had been collected daily with a vacuum cleaner. The vacuum cleaner had been mounted with a replaceable filter located ahead of the dust container, thus catching the pollen before it enters the container and improving its collection. A new filter was used for each group, and the filters were kept in a 50 ml tube before the pollen was extracted and weighed in the lab.
(§9) The experiment tested 8 male sterilant agents (Table 2): (1) Triton X-100 (Adama), at label rate, ˜8 times the rate used in experiment I; (2) Tribenuron-Methyl (TBM) (Gadot), 1/100 the rate used in experiment I; (3) 10% Paraffin oil (Life—Superpharm) diluted in Silicon oil 2 cST; (4) E.O.S. (Adama), an insecticide with a physical mode of action, based on petroleum oil; (5) Maleic Hydrazide (Sigma), an Auxin (plant hormone) disruptor known to affect pollen production; (6) Pyrithiobac (IHARA chemical industry co. ltd), an herbicide of the AHAS inhibitors group, regularly used in cotton cultivation to control broadleaf weeds; (7) Diuron (Adama), a herbicide of the Photosystem II inhibitors, regularly used in cotton cultivation; (8) Clethodim (Select Super™ a selective herbicide used to control Gramineae. Another group of plants were treated with water only as control, and another was not treated at all (Blank).
as §7

A. palmeri male plants [8] = assay: Exp 321: male sterility agents screening #2, pollen production; format: in vivo, Amaranthus palmeri; settings: 7 ml/L (high rate); collection up to 12 DAA
Description: The goal of this experiments was to repeat results with Select Super™ (Arysta Lifescience) and test an additional formulation of clethodim to act as a sterilant on A. palmeri male plants.
The experiment was conducted during September-October 2022 in a net house in Rehovot, Israel. A. palmeri plants were sown in germinating trays, 3 weeks after the seedlings had emerged, the male plants were transplanted in the net house. A. palmeri plants were divided into 4 groups of 10 plants each, 40 male plants in total.
Once the male plants had all started to flower, the pollen had been collected daily with a vacuum cleaner in the same manner as described in Example 1. Pollen was collected in specific days following the applications up to 12 DAA.
The experiment tested 2 male sterilant agents: (1) Clethodim (Select Super™, Arysta Lifescience) low rate: 3.5 ml/L and high rate: 7 ml/L, (2) Clethodim (Arrow Super™, Adama) 7 ml/L. Another group of plants were not treated at all and served as a control.
Treatment procedure was conducted as follows: spraying of the entire plants using a hand-held 1.5 L sprayer for a full cover of all plant parts. Each group of plants was sprayed with the tested treatment while keeping enough distance between the groups to prevent contamination.

A. palmeri females [9] = assay: Exp 254: phytotoxicity of the agents on females; format: in vivo, Amaranthus palmeri; settings: 3 females per treatment; concentrations of Table 2; Diuron 5 ml/L, Pyrithiobac 5.4 μL/L
Description: as §6
as §9, with “Another group of plants were treated with water only as control, and another was not treated at all (Blank).” left out

[10] = average of 3 inflorescences, pollinated one week after treatment
[11] = Clethodim 3.5 ml/L, 10% Paraffin in 2 cST
[12] = Clethodim treatment group, FIG. 2

## CCSC(C)CC1CC(=O)C(/C(CC)=N/OC/C=C/Cl)=C(O)C1 (centres unmarked) [Clethodim (Select Super™]
A. palmeri female plants [1]; vs tap water
  abortion rate (aborted seeds/total seeds): significantly higher compared to the water control

## CCSC(C)CC1CC(=O)C(/C(CC)=N/OC/C=C/Cl)=C(O)C1 (centres unmarked) [Clethodim]
A. palmeri female plants [1]
  duration of decreased total seed number after application: at least 10 days
[2]
  visible effect on the plants: no visible effect on the plants other than on the flowering organs
[2]; pollination 7 days after treatment
  reduction of average seed weight per spike in comparison to the control spikes: 93%
[2]; pollination 7 days after treatment, 4 spikes from 4 plants
  Average total seed weight per spike: 13.25 mg
Abutilon theophrasti
  time from application to start of Blossom-Drop: 7 days
Abutilon theophrasti; 15 DAA, p-value *0.0058
  reduction in average stem length (main stem): 19%
Abutilon theophrasti; 15 days after application, p-value *0.0001
  reduction in average pods number in comparison to the control: 75%
A. palmeri female plants [3]; both rates
  visible effect on the plants: no visible effect on the plants
A. palmeri female plants [3]; high rate 7 ml/l (0.84 gr/L active ingredient)
  reduction in number of seeds produced in comparison to the control, on average: 92%
A. palmeri female plants [3]; low rate 3.5 ml/l (0.42 gr/L active ingredient)
  reduction in number of seeds produced in comparison to the control, on average: 67%
A. palmeri male plants [4]; 10% Paraffin oil in Silicon oil 2 cST, Clethodim (Select Super) as in Example 1
  duration of the reduction in pollen weight: 8 days
A. palmeri male plants [4]; in vivo
  apparent damage to the plants: did not cause any apparent damage to the plants
  onset of the reduction in pollen weight after application: 5 days
A. palmeri male plants [4]; maximum reduction, FIG. 4
  reduction in pollen weight compared to the blank: up to 80%
A. palmeri females [5]; [10]
  Average Aborted Seeds: 80.7 number of seeds
  Average Abortion Rate (fraction of aborted seeds from the total seed number): 0.17
  Average Normal Seeds: 349 number of seeds
  Average Seeds/ mg inflo. (total seed number divided by inflorescence weight): 0.78
  Average Total Seeds: 429.7 number of seeds
A. palmeri females [5]; average of 3 inflorescences, pollinated one week after treatment, harvested two weeks later
  Average Inflo. Weight: 667.3 mg
A. palmeri females [5]; compared to H2O treatment
  effect on abortion rate compared to the water: no effect
  number of seeds per inflorescence mg as % of the water treatment value: ~70%
[6]
  duration of the effect on pollen: at least 21 days
  onset of the effect on pollen: 4 days after treatment
Solanum nigrum
  reduction in average total fruit number: 35%
A. palmeri male plants [7]; Clethodim 3.5 ml/L
  pollen weight after treatment relative to the lowest amount collected before treatment: 1/10
A. palmeri male plants [7]; [11]
  duration of the pollen weight reduction / time to get back to pre-treatment weight: 14 days
  onset of the reduction in pollen weight: 5 days after treatment
A. palmeri male plants [7]; [12]
  onset of pollen production (recovery): 13 DAT
  period of major reduction in pollen weight: 5-8 DAT
A. palmeri male plants [7]; male plants after spraying
  visible effect / injury to the treated plants: no apparent injury to the plants; also recorded: no visible effect on the plants
A. palmeri male plants [8]
  reduction in pollen production between day 4 and the end of the experiment: 78%

## CN(C)C(=O)Nc1ccc(Cl)c(Cl)c1 [Diuron]
A. palmeri females [9]
  phytotoxicity on females: killed all three females

## COc1cc(OC)nc(Sc2cccc(Cl)c2C(=O)O)n1 [Pyrithiobac]
A. palmeri females [9]
  phytotoxicity on females: chlorosis and growth stunt

— patent US20240407364A1, “METHODS OF WEED CONTROL” (Weedout Ltd., priority 2021, published 2024)
